Blank lines part the entries; values can stand above or below the molecule they belong to.
Key:
[1] = molecular target: T1, human ANXA1 (Homo sapiens, UniProt P04083); assay: Vesicle tethering assay (turbidity of extrusion generated phosphatidylserine vesicles); format: biochemical
T1 construct: purchased R&D Systems
T1 sequence (P04083 1-346): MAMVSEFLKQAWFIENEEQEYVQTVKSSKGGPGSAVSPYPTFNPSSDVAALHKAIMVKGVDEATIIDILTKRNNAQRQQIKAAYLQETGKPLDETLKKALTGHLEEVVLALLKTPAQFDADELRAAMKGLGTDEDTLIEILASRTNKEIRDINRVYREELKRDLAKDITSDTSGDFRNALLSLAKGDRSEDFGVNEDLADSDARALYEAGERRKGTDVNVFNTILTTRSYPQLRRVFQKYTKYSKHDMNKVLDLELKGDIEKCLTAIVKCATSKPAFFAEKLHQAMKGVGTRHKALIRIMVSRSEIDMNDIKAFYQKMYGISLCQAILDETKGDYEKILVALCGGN
Experimental: Vesicle Tethering Assay. Vesicle tethering was assessed by using a previously reported protocol (19) with modifications to adjust to a 96-well plate reader format. Large unilaminar vesicles of ˜100 nm in diameter were generated by filter extrusion. Briefly, 2.5 mg of phosphatidylserine (Avanti Polar Lipids) was solubilized in 1 mL of buffer containing: 10 mmol/L Hepes (Sigma, St. Louis, Mo.), 100 mmol/L NaCl (Sigma), 100 μmon ethylenediaminetetraacetic acid (Boston BioProducts, Ashland, Mass.), pH 6. The lipid mixture was run through an extruder containing 0.1 μm polycarbonate membranes (Avanti Polar Lipids) ten times, during which point the lipid mixture went from cloudy to clear in appearance. Vesicles were assessed for correct size and abundance prior to use by NanoSight nanoparticle tracking analysis. […] 27 jd of extrusion generated vesicles were added to each well and vesicle aggregation was measured at wavelength 350 on a SpectraMax M5 96-well plate reader (Molecular Devices, San Jose, Calif.). For calcium chelation, 0.48 mmol/L ethylenediaminetetraacetic acid was incubated with 1 μg human ANXA1 protein for five minutes at room temperature prior to adding the extrusion generated vesicles, after which the reaction was carried out for 20 minutes and then aggregation was determined on a plate reader. […]

[2] = molecular target: ANXA1 on human SMC-derived EVs (Homo sapiens, UniProt P04083); conditions: 0.48 mmol/L EDTA in PBS, 30 minutes at 37° C.
[3] = molecular target: ANXA1 on human VIC-derived EVs (Homo sapiens, UniProt P04083); conditions: 0.48 mmol/L EDTA in PBS, 30 minutes at 37° C.
[4] = system: ANXA1 loading on EVs; assay: ANXA1 loading on EVs derived from SMCs treated with mdivi-1 (western blot); format: cell-based; conditions: human SMCs in OM, 14 days
Experimental: Primary Cell Culture. Primary human coronary artery SMCs were obtained from Promocell (Heidelberg, Germany) and expanded in SMC Growth Medium 2 (Promocell) supplemented with epidermal growth factor (0.5 ng/mL), insulin (5 μg/mL) basic fibroblast growth factor- B (2 ng/mL), and 5% fetal bovine serum. Primary human VICs were obtained from human aortic valve tissue using collagenase digestion (28, 30). Tissue-derived SMCs were confirmed as alpha smooth muscle actin-positive by FACS (30). Tissue-derived VICs were confirmed as vimentin positive by immunohistochemistry (28). Cells were cultured at 37° C. (5% CO2, 90% humidity) and used between passages 1 and 5. […] Tissue non-specific alkaline phosphatase (TNAP) activity was analyzed after 14 days in culture using whole cell lysates and the TNAP enzyme activity assay (BioVision, Inc., Milpitas, Calif.), according to the manufacturer's protocol. Calcification was analyzed in cells after 21 days in culture by incubating culture wells with OsteoSense680 (1:100), near-infrared based bisphosphonate calcium tracer, for 24 hours at 37° C. […]
RNA and Protein Analysis. […] ANXA1 EVs surface localization was assessed by isolating human SMC and VIC EVs. […]

[5] = molecular target: dynamin-related protein 1 (DRP1) (Homo sapiens, UniProt O00429); conditions: OM; cited from earlier work
[6] = Annexin vesicle binding (confocal, swelling generated phosphatidylserine vesicles); conditions: 2 μg ANXA1-GFP, 1 mmol/L CaCl2, five minutes
Experimental: Annexin Vesicle Binding. Giant unilamellar vesicles were generated using a previously described protocol (50) with some modifications. Briefly, for the confocal-based ANXA1 vesicle binding assay, 12 mm diameter cover glass circles were coated with 5% polyvinyl alcohol (Millipore, Burlington, Mass.) in water and left to dry overnight. Dried slides were then coated with 20 μl of 10 mg/mL phosphatidylserine (Avanti Polar Lipids, Alabaster, Ala.) in chloroform containing 0 1% DiR′; DiIC18(7) 1,1′-Dioctadecyl-3,3,3′,3′-Tetramethylindotricarbocyanine Iodide) (Fisher Scientific) and dried under vacuum. 1 mL of tris buffer (pH 6) was added to cover the coated cover glass circle in a 24-well plate, and giant unilaminar vesicles were formed by swelling at room temperature for 1 hour. Vesicles were detached from the cover glass by gently tapping the plate directly beneath the slide. ANXA1 tagged green fluorescent protein (ANXA1-GFP) was obtained by transfecting HEK-293 cells (ATCC, Manassas, Va.) with human ANXA1-GFP plasmid (OriGene, Rockville, Md., #RG201569). […] GFP laser settings were adjusted such that no GFP signal was detected in samples without ANXA1-GFP added.

Sequence of dynamin-related protein 1 (DRP1) (O00429 whole entry): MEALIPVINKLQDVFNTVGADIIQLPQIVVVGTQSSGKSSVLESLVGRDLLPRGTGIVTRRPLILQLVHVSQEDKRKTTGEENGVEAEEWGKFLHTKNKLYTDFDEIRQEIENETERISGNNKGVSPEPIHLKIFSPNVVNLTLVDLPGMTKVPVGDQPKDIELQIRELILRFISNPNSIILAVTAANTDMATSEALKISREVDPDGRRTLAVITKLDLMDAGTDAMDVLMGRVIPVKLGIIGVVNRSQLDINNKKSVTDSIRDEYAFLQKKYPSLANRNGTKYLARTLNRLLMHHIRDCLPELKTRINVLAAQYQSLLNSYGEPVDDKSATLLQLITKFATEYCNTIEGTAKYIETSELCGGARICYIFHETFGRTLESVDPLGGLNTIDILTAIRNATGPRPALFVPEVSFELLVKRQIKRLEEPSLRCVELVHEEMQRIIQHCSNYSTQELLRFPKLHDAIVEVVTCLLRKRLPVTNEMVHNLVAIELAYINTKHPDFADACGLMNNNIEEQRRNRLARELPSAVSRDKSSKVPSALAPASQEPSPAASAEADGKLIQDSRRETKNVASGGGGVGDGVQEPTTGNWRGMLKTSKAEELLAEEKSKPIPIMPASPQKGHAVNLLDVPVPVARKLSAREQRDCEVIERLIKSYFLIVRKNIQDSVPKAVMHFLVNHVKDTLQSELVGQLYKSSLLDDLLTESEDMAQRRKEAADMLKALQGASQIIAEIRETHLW

ANXA1-mediated vesicle aggregation ([1]; 0.48 mmol/L EDTA, 1 μg human ANXA1 protein, 20 minutes): attenuated
ANXA1 release from EVs [2]: increased
ANXA1 release from EVs [3]: increased
Molecule: O=C(O)CN(CCN(CC(=O)O)CC(=O)O)CC(=O)O [EDTA, ethylenediaminetetraacetic acid]

Molecule: COc1cc(-n2c(S)nc3ccccc3c2=O)c(Cl)cc1Cl [mdivi-1]
increased ANXA1 loading on EVs in OM [4]: suppressed
SMC and VIC calcification [5]: suppressed
intracellular calcium storage [5]: increased
mitochondrial fragmentation [5]: reduced

B1: human ANXA1 protein: recombinant human ANXA1 (R&D Systems) (protein)
chain: AMVSEFLKQAWFIENEEQEYVQTVKSSKGGPGSAVSPYPTFNPSSDVAALHKAIMVKGVDEATIIDILTKRNNAQRQQIKAAYLQETGKPLDETLKKALTGHLEEVVLALLKTPAQFDADELRAAMKGLGTDEDTLIEILASRTNKEIRDINRVYREELKRDLAKDITSDTSGDFRNALLSLAKGDRSEDFGVNEDLADSDARALYEAGERRKGTDVNVFNTILTTRSYPQLRRVFQKYTKYSKHDMNKVLDLELKGDIEKCLTAIVKCATSKPAFFAEKLHQAMKGVGTRHKALIRIMVSRSEIDMNDIKAFYQKMYGISLCQAILDETKGDYEKILVALCGGN
vesicle aggregation (turbidity) ([1]; 0 up to 5 μg recombinant ANXA1, 1 mmol/L CaCl2, ~150 nm phosphatidylserine vesicles): time- and concentration-dependent vesicle aggregation

B2: GFP-tagged ANXA1: green fluorescent protein tagged human ANXA1 immunopurified from transfected HEK-293 cells (protein)
chain: T1 sequence (P04083 1-346)
modifications: left off: large carriers
notes: green fluorescent protein tagged human ANXA1 immunopurified from transfected HEK-293 cells
ANXA1 localization on tethered vesicles [6]: enriched ANXA1 at tethered vesicle membrane contact sites

Source: patent US20210353721A1, “METHODS AND COMPOSITIONS RELATING TO INHIBITING CARDIOVASCULAR CALCIFICATION VIA ANNEXIN A1” (THE BRIGHAM AND WOMEN'S HOSPITAL, INC., priority 2018, published 2021)
